LC retention time data for 60 compounds are collected here from the RepoRT retention time repository.

Each structure is given as a SMILES string.

A short description of this series: HILIC, Waters ACQUITY UPLC BEH Amide, 100 × 2.1 mm, 1.7 µm; A: water + 0.125% formic acid + 10 mM ammonium formate; B: 5% water + 95% acetonitrile + 0.125% formic acid + 10 mM ammonium formate; gradient (min/%B) 0/100 2/100 7.7/70 9.5/40 10.25/30 12.75/100 17/100. Particulars: stereoisomer not certain.
As to `CN1C(=O)C(O)N=C(c2ccccc2)c2cc(Cl)ccc21` (stereo not given) [Temazepam], the LC retention time came to 1.15 min.

`COCCOC(=O)C1=C(C)NC(C)=C(C(=O)OC(C)C)C1c1cccc([N+](=O)[O-])c1` (stereo not given) [Nimodipine]: the LC retention time came out at 0.94 min.

With `CC(=O)Nc1ccc(O)cc1` [Acetaminophen], the LC retention time came to 1.37 min.

`CCCCCCCCCCCC(CC1OC(=O)C1CCCCCC)OC(=O)C(CC(C)C)NC=O` (stereo not given) [Orlistat]: the LC retention time is 0.89 min.

As to `COc1ccc(OC)c(C(O)C(C)N)c1` (stereo not given) [Methoxamine], the LC retention time worked out at 4.75 min.

As for `CN(C)CCOC(c1ccccc1)c1ccccc1` [Diphenhydramine], the LC retention time was determined as 2.15 min.

For the compound `Oc1ccc2c3c1OC1c4[nH]c5ccccc5c4CC4(O)C(C2)N(CC2CC2)CCC314` (stereo not given) [Naltrindole], the LC retention time amounted to 4.45 min.

`Nc1nc(Cl)nc2c1ncn2C1CC(O)C(CO)O1` (stereo not given) [Cladribine]: the LC retention time amounted to 1.95 min.

Turning to `Nc1ncnc2c1ncn2C1OC(COP(=O)(O)O)C(O)C1O` (stereo not given) [Adenosine 5'-monophosphate], the LC retention time is 8.88 min.

As to `CC(O)(CS(=O)(=O)c1ccc(F)cc1)C(=O)Nc1ccc(C#N)c(C(F)(F)F)c1` (stereo not given) [Bicalutamide], the LC retention time is 0.99 min.

Take `NC(=O)CC(N)C(=O)O` (stereo not given) [Asparagine]: the LC retention time came out at 8.81 min.

Consider `NC(CCCC(N)C(=O)O)C(=O)O` (stereo not given) [2,6-Diaminopimelic acid], for which the LC retention time came to 9.88 min.

Take `Nc1c(O)cccc1C(=O)O` [3-Hydroxyanthranilic acid]: the LC retention time was 1.48 min.

In the case of `O=C(O)C1CCCCN1` (stereo not given) [Pipecolic acid], the LC retention time turned out to be 7.83 min.

On to `CC12CCC3C(CCC4CC(O)CCC43C)C1CCC2O` (stereo not given) [Androstane-3,17-diol], for which the LC retention time is 0.96 min.

As for `CCc1ccc(CCOc2ccc(CC3SC(=O)NC3=O)cc2)nc1` (stereo not given) [Pioglitazone], the LC retention time was found to be 1.11 min.

For the compound `CCCC=CC=O` [2-Hexenal], the LC retention time was determined as 1.39 min.

Turning to `COc1ccc(-c2oc3c(CC=C(C)C)c(OC4OC(CO)C(O)C(O)C4O)cc(O)c3c(=O)c2OC2OC(C)C(O)C(O)C2O)cc1` (stereo not given) [Icarin], the LC retention time was found to be 4.74 min.

For `COC(=O)C1=C(C)NC(C)=C(C(=O)OC)C1c1ccccc1[N+](=O)[O-]` [Nifedipine], the LC retention time is 1.02 min.

`CN1C(=O)CCC1c1cccnc1` (stereo not given) [Cotinine]: the LC retention time amounted to 1.49 min.

As for `CC1(C)CC1C(=O)NC(=CCCCCSCC(N)C(=O)O)C(=O)O` (stereo not given) [Cilastatin], the LC retention time is 7.63 min.

In the case of `O=c1cnn(C2OC(CO)C(O)C2O)c(=O)[nH]1` (stereo not given) [6-Azuridine], the LC retention time is 4.31 min.

With `NCCc1c[nH]c2ccc(O)cc12` [Serotonin], the LC retention time came out at 1.44 min.

In the case of `NC(=O)NC(NC(N)=O)C(=O)O` [Allantoic acid], the LC retention time was found to be 8.56 min.

On to `CSCCC(NC(C)=O)C(=O)O` (stereo not given) [N-Acetylmethionine], for which the LC retention time stood at 3.23 min.

As for `COc1cn(C2OC(CO)C(O)C2O)c(=O)[nH]c1=O` (stereo not given) [5-Methoxyuridine], the LC retention time was 4.72 min.

For the compound `CCC1(O)CC2CN(CCc3c([nH]c4ccccc34)C(C(=O)OC)(c3cc4c(cc3OC)N(C)C3C(O)(C(N)=O)C(O)C5(CC)C=CCN6CCC43C65)C2)C1` (stereo not given) [Vindesine], the LC retention time is 5.76 min.

Consider `COC(=O)C1=C(C)NC(C)=C(C(=O)OC2CCCN(Cc3ccccc3)C2)C1c1cccc([N+](=O)[O-])c1` (stereo not given) [Benidipine], for which the LC retention time amounted to 1.46 min.

Regarding `CC(CN)C(=O)O` (stereo not given) [3-Aminoisobutyric acid], the LC retention time came to 7.4 min.

As to `C=C1CCOC1=O` [alpha-Methylene-gamma-butyrolactone], the LC retention time came out at 1.05 min.

Consider `CC12CCC3c4ccc(O)cc4CCC3C1CCC2=O` (stereo not given) [1,3,5(10)-Estratrien-3-ol-17-one], for which the LC retention time turned out to be 1.01 min.

In the case of `Nc1ncnc2c1ncn2C1OC(CO)CC1O` (stereo not given) [Cordycepin], the LC retention time worked out at 3.54 min.

Turning to `CNCC(=O)O` [Sarcosine], the LC retention time is 7.82 min.

Take `CC(N)C(O)c1ccccc1` (stereo not given) [Phenylpropanolamine]: the LC retention time is 5.29 min.

For `CN(C)CCC(c1ccc(Cl)cc1)c1ccccn1` (stereo not given) [Chlorpheniramine], the LC retention time was 2.54 min.

On to `CCCN1CCCCC1C(=O)Nc1c(C)cccc1C` (stereo not given) [Ropivacaine], for which the LC retention time came to 2.49 min.

For the compound `NC(=O)CCCCC1CCSS1` (stereo not given) [Lipoamide], the LC retention time is 1.25 min.

For the compound `NCCCCC(=O)O` [5-Aminovaleric acid], the LC retention time is 7.24 min.

As to `COC1C(O)C(CO)OC1n1cc(C)c(=O)[nH]c1=O` (stereo not given) [2'-O-Methyl-5-methyluridine], the LC retention time was 1.75 min.

For `CC(C)C(NC(=O)CN)C(=O)O` (stereo not given) [Gly-val], the LC retention time stood at 8.05 min.

`CC(COc1ccccc1Cc1ccccc1)N1CCCCC1` (stereo not given) [Benproperine]: the LC retention time was 1.99 min.

For the compound `CC(C)CC(N)C(=O)N1CCCC1C(=O)O` (stereo not given) [Leu-Pro], the LC retention time turned out to be 7.32 min.

Turning to `CN1CCC23c4c5ccc(O)c4OC2C(=O)CCC3C1C5` (stereo not given) [Hydromorphone], the LC retention time came out at 5.22 min.

In the case of `CC(=O)OCC(CCn1cnc2cnc(N)nc21)COC(C)=O` [Famciclovir], the LC retention time stood at 1.38 min.

Turning to `Oc1cc(O)c2c(c1)OC(c1cc(O)c(O)c(O)c1)C(O)C2` (stereo not given) [Epigallocatechin], the LC retention time stood at 10.2 min.

Regarding `C=CC1=C(C(=O)O)N2C(=O)C(NC(=O)C(=NO)c3csc(N)n3)C2SC1` (stereo not given) [Cefdinir], the LC retention time came out at 6.94 min.

Consider `Nc1nnc(-c2cccc(Cl)c2Cl)c(N)n1` [Lamotrigine], for which the LC retention time was determined as 1.98 min.

`Nc1cc(CC(N)C(=O)O)ccc1O` (stereo not given) [3-Aminotyrosine]: the LC retention time came out at 8.06 min.

Regarding `Cc1cn(C2CC(O)C(COP(=O)(O)O)O2)c(=O)[nH]c1=O` (stereo not given) [Thymidine 5'-monophosphate], the LC retention time was determined as 8.28 min.

For `COc1ccccc1OCC(O)CN1CCN(CC(=O)Nc2c(C)cccc2C)CC1` (stereo not given) [Ranolazine], the LC retention time was determined as 2.79 min.

Regarding `CN1CCCCC1CCN1c2ccccc2Sc2ccc(S(C)=O)cc21` (stereo not given) [Mesoridazine], the LC retention time was found to be 4.24 min.

For the compound `CC(=O)OCC=C(C)CCC=C(C)C` [Nerylacetate], the LC retention time is 0.99 min.

Consider `NC(CC(=O)O)c1ccc(O)cc1` (stereo not given) [3-Amino-3-(4-hydroxyphenyl)propionic acid], for which the LC retention time is 7.42 min.

On to `CC(=O)SCC(Cc1ccccc1)C(=O)NCC(=O)OCc1ccccc1` (stereo not given) [Racecadotril], for which the LC retention time worked out at 0.95 min.

As for `CC(C)=CC(=O)NCC(=O)O` [3-Methylcrotonylglycine], the LC retention time came out at 2.95 min.

As to `CN1CCc2cc(Cl)c(O)cc2C(c2ccccc2)C1` (stereo not given) [UNII-UGT5535REQ], the LC retention time stood at 2.89 min.

Turning to `CC(C)(C)NCC(O)c1ccc(O)c(CO)c1` (stereo not given) [Albuterol], the LC retention time was 5.55 min.

For `CSCCCN` [3-Methylthiopropylamine], the LC retention time came out at 5.16 min.

On to `CC(=O)OCC[C@H](N)C(=O)O` [O-Acetyl-L-homoserine], for which the LC retention time is 7.6 min.

As to `CC(C)C(=O)C(=O)O` [Ketoisovaleric acid], the LC retention time stood at 2.84 min.
